Legend:
tyrosinase [1] = molecular target: T1, tyrosinase (Agaricus bisporus, UniProt C7FF04); assay: Fluorescence quenching of tyrosinase; format: binding; conditions: for Kd: Ka; for quenching mechanism: Ksv decreasing with temperature; for ΔH / ΔS: van't Hoff equation, 298-310 K
Target sequence in this assay (C7FF04 1-392 limits assumed): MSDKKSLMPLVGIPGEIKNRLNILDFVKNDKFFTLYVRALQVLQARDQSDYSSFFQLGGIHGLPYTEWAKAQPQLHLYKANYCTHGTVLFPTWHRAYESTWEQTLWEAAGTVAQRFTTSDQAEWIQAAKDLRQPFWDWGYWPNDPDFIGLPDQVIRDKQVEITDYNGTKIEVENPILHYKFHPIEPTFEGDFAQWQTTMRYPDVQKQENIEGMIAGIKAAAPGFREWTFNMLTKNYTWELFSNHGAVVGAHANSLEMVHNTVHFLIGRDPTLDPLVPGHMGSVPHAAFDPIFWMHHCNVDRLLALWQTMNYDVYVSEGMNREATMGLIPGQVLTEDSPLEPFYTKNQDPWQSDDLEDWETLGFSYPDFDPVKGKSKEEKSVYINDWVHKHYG

tyrosinase [2] = molecular target: T1, tyrosinase; assay: Kinetic assay for inhibition action; format: biochemical; conditions: for Inhibition type: Lineweaver-Burk plot
Target sequence in this assay (C7FF04 1-392): as the sequence (C7FF04 1-392 limits assumed) above

tyrosinase [3] = molecular target: T1, tyrosinase; assay: biochemical
Target sequence in this assay (C7FF04 1-392): as the sequence (C7FF04 1-392 limits assumed) above

COc1cc(-c2oc3cc(O)cc(O)c3c(=O)c2O)ccc1O [Isorhamnetin]
numbers of binding sites (n) (tyrosinase [1]): ~1 | Kq (tyrosinase [1]; 298 K): 0.73 × 10^12 L mol^−1 S^−1 | Kq (tyrosinase [1]; 304 K): 0.65 × 10^12 L mol^−1 S^−1 | Kq (tyrosinase [1]; 310 K): 0.51 × 10^12 L mol^−1 S^−1 | Kd (tyrosinase [1]; T 298 K): 5.46 µM | Kd (tyrosinase [1]; T 304 K): 5.18 µM | Kd (tyrosinase [1]; T 310 K): 9.8 µM | quenching mechanism (tyrosinase [1]): static | KSV (tyrosinase [1]; T 298 K): 0.73 ± 0.01 10^4L·mol^−1 | n (number of binding sites) (tyrosinase [1]; T 298 K): 1.10 | ΔG (tyrosinase [1]; T 298 K): -2.96 ± 0.01 kJ/mol | KSV (tyrosinase [1]; T 304 K): 0.65 ± 0.02 10^4L·mol^−1 | n (number of binding sites) (tyrosinase [1]; T 304 K): 1.12 | ΔG (tyrosinase [1]; T 304 K): -2.93 ± 0.01 kJ/mol | KSV (tyrosinase [1]; T 310 K): 0.51 ± 0.01 10^4L·mol^−1 | n (number of binding sites) (tyrosinase [1]; T 310 K): 1.08 | ΔG (tyrosinase [1]; T 310 K): -2.90 ± 0.02 kJ/mol | ΔH (tyrosinase [1]): -4.48 ± 2.1 kJ/mol | ΔS (tyrosinase [1]): −5.10 ± 1.19 J mol^−1k^−1 | Inhibition type (tyrosinase [2]): Mixed | Inhibition type (tyrosinase [2]; listed as isorhamnetin): mixed inhibition | Kis (tyrosinase [2]; binding to enzyme-substrate complex): 0.924 ± 0.02 mg/mL | IC50 (tyrosinase [3]): 96.4 ± 9.9 µM

O=c1c(O)c(-c2ccc(O)c(O)c2)oc2cc(O)cc(O)c12 [Quercetin]
numbers of binding sites (n) (tyrosinase [1]): ~2 | Kq (tyrosinase [1]; 298 K): 1.44 × 10^12 L mol^−1 S^−1 | Kq (tyrosinase [1]; 304 K): 1.17 × 10^12 L mol^−1 S^−1 | Kq (tyrosinase [1]; 310 K): 1.13 × 10^12 L mol^−1 S^−1 | quenching mechanism (tyrosinase [1]): static | KSV (tyrosinase [1]; T 298 K): 1.44 ± 0.21 10^4L·mol^−1 | n (number of binding sites) (tyrosinase [1]; T 298 K): 1.44 | ΔG (tyrosinase [1]; T 298 K): -3.86 ± 0.05 kJ/mol | KSV (tyrosinase [1]; T 304 K): 1.17 ± 0.11 10^4L·mol^−1 | n (number of binding sites) (tyrosinase [1]; T 304 K): 1.46 | ΔG (tyrosinase [1]; T 304 K): -4.12 ± 0.02 kJ/mol | KSV (tyrosinase [1]; T 310 K): 1.13 ± 0.15 10^4L·mol^−1 | n (number of binding sites) (tyrosinase [1]; T 310 K): 1.61 | ΔG (tyrosinase [1]; T 310 K): -4.39 ± 0.02 kJ/mol | ΔH (tyrosinase [1]): 9.12 ± 1.3 kJ/mol | ΔS (tyrosinase [1]): 43.56 ± 3.21 J mol^−1k^−1 | Inhibition type (tyrosinase [2]): Competitive

O=c1c(O)c(-c2ccc(O)cc2)oc2cc(O)cc(O)c12 [Kaempferol]
numbers of binding sites (n) (tyrosinase [1]): ~1 | Kq (tyrosinase [1]; 298 K): 1.03 × 10^12 L mol^−1 S^−1 | Kq (tyrosinase [1]; 304 K): 0.83 × 10^12 L mol^−1 S^−1 | Kq (tyrosinase [1]; 310 K): 0.73 × 10^12 L mol^−1 S^−1 | Kd (tyrosinase [1]; T 298 K): 47.6 µM | Kd (tyrosinase [1]; T 304 K): 16.9 µM | Kd (tyrosinase [1]; T 310 K): 12.3 µM | quenching mechanism (tyrosinase [1]): static | KSV (tyrosinase [1]; T 298 K): 1.03 ± 0.04 10^4L·mol^−1 | n (number of binding sites) (tyrosinase [1]; T 298 K): 1.08 | ΔG (tyrosinase [1]; T 298 K): -3.00 ± 0.06 kJ/mol | KSV (tyrosinase [1]; T 304 K): 0.83 ± 0.1 10^4L·mol^−1 | n (number of binding sites) (tyrosinase [1]; T 304 K): 1.22 | ΔG (tyrosinase [1]; T 304 K): -3.27 ± 0.03 kJ/mol | KSV (tyrosinase [1]; T 310 K): 0.73 ± 0.02 10^4L·mol^−1 | n (number of binding sites) (tyrosinase [1]; T 310 K): 1.27 | ΔG (tyrosinase [1]; T 310 K): -3.54 ± 0.05 kJ/mol | ΔH (tyrosinase [1]): 10.42 ± 1.1 kJ/mol | ΔS (tyrosinase [1]): 45.03 ± 7.1 J mol^−1k^−1 | Inhibition type (tyrosinase [2]): Competitive | IC50 (tyrosinase [3]): 82.1 ± 13.7 µM

From article PMC11462347 (Heliyon, 2024)
